This test concerns Aβ42. The test can be described thus: In vitro cell screening assay in H4 cells expressing human APP751: Aβ42 by sandwich ELISA. In kind it is cell-based. The note with it: compounds 0.003-10 μM, incubated overnight (16-18 h), sandwich ELISA of supernatant. The gist of the method:
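H4 neuroglioma cells stably expressing wild-type human APP751, switched to Pro293 medium and treated with compounds (0.003-10 μM, 0.33% DMSO) for 16-18 h at 37 °C. Supernatant Aβ42 quantified by sandwich ELISA (C-terminal capture, 4G8-HRP detection, A450); EC50 by sigmoidal fit normalized to DMSO and DAPT controls.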
(In general: In an ELISA, binding on a coated surface is turned into a signal by an enzyme label.)

pEC50: −log10 of the molar value. Bounds are passed on as bounds.

`COc1nc(C2=NOCC(c3cn(C)c4ccc(Cl)c(F)c34)N2)ccc1-n1cnc(C)c1` (single isomer, unassigned; (-)) [Example 237B, (−)-5-(5-chloro-4-fluoro-1-methyl-1H-indol-3-yl)-3-(6-methoxy-5-(4-methyl-1H-imidazol-1-yl)pyridin-2-yl)-5,6-dihydro-4H-1,2,4-oxadiazine]: the pEC50 (commonly the EC50 on a negative log10 scale, so that one unit is a factor of ten) is 7.33.

The compound `COc1nc(C2=NOCC(c3cc(F)cc(F)c3)N2)ccc1-n1cnc(C)c1` (single isomer, unassigned; (+)) [Example 81B, (+)-5-(3,5-difluorophenyl)-3-(6-methoxy-5-(4-methyl-1H-imidazol-1-yl)pyridin-2-yl)-5,6-dihydro-4H-1,2,4-oxadiazine] showed a pEC50 of 7.37. The pEC50 values of the last two compounds are within 0.2 log units of each other.

Take `COc1nc(C2=NOCC(c3ccc(C4CC4)cc3)N2)ccc1-n1cnc(C)c1` (single isomer, unassigned; (+)) [Example 116B, (+)-5-(4-cyclopropylphenyl)-3-(6-methoxy-5-(4-methyl-1H-imidazol-1-yl)pyridin-2-yl)-5,6-dihydro-4H-1,2,4-oxadiazine]: the pEC50 is 7.41. This pEC50 and that of the compound before are within 0.2 log units of each other.

Compound `COc1nc(C2=NOCC(c3cn(C)c4cccc(Cl)c34)N2)ccc1-n1cnc(C)c1` (single isomer, unassigned; (+)) [Example 229A, (+)-5-(4-chloro-1-methyl-1H-indol-3-yl)-3-(6-methoxy-5-(4-methyl-1H-imidazol-1-yl)pyridin-2-yl)-5,6-dihydro-4H-1,2,4-oxadiazine] had a negative-log EC50 (pEC50) (Homo sapiens) of 7.54.

In the case of `COc1nc(C2=NOCC(c3ccc(F)c(C(F)(F)F)c3)N2)ccc1-n1cnc(C)c1` (single isomer, unassigned) [Example 44A, 5-(4-fluoro-3-(trifluoromethyl)phenyl)-3-(6-methoxy-5-(4-methyl-1H-imidazol-1-yl)pyridin-2-yl)-5,6-dihydro-4H-1,2,4-oxadiazine], the pEC50 is under 5.52.

As to `COc1nc(C2=NOCC(c3ccc(F)cc3)N2)ccc1-n1cnc(C)c1` (single isomer, unassigned) [Example 40B, 5-(4-fluorophenyl)-3-(6-methoxy-5-(4-methyl-1H-imidazol-1-yl)pyridin-2-yl)-5,6-dihydro-4H-1,2,4-oxadiazine], the negative-log EC50 (pEC50) was 7.23.

With `COc1nc(C2=NOCC(c3cc4cc(F)ccc4o3)N2)ccc1-n1cnc(C)c1` (single isomer, unassigned; (+)) [Example 84B, (+)-5-(5-fluorobenzofuran-2-yl)-3-(6-methoxy-5-(4-methyl-1H-imidazol-1-yl)pyridin-2-yl)-5,6-dihydro-4H-1,2,4-oxadiazine], the negative-log EC50 (pEC50) is 7.53. This pEC50 is 0.30 log units higher than that of the compound before.

In turn, `COc1nc(C2=NOCC(c3ccc(OC(F)F)cc3)N2)ccc1-n1cnc(C)c1` (single isomer, unassigned; (-)) [Example 93A, (−)-5-(4-(difluoromethoxy)phenyl)-3-(6-methoxy-5-(4-methyl-1H-imidazol-1-yl)pyridin-2-yl)-5,6-dihydro-4H-1,2,4-oxadiazine] gave a negative logarithm of the EC50 (pEC50) of under 5.52.

On to `COc1nc(C2=NOCC(c3cn(C)c4c(F)cccc34)N2)ccc1-n1cnc(C)c1` (single isomer, unassigned; (-)) [Example 231A, (−)-5-(7-fluoro-1-methyl-1H-indol-3-yl)-3-(6-methoxy-5-(4-methyl-1H-imidazol-1-yl)pyridin-2-yl)-5,6-dihydro-4H-1,2,4-oxadiazine], for which the pEC50 is 6.64.

Compound `COc1nc(C2=NOCC(c3coc4ccccc34)N2)ccc1-n1cnc(C)c1` (single isomer, unassigned) [Example 38B, 5-(benzofuran-3-yl)-3-(6-methoxy-5-(4-methyl-1H-imidazol-1-yl)pyridin-2-yl)-5,6-dihydro-4H-1,2,4-oxadiazine] had a pEC50 of 7.65.

Turning to `COc1nc(C2=NOC[C@H](c3cc4ccccc4o3)N2)ccc1-n1cnc(C)c1` [Example 4, (R)-5-(Benzofuran-2-yl)-3-(6-methoxy-5-(4-methyl-1H-imidazol-1-yl)pyridin-2-yl)-5,6-dihydro-4H-1,2,4-oxadiazine], where the note is “Homo sapiens”, the negative logarithm of the EC50 (pEC50) was 7.42.

For the compound `COc1nc(C2=NOCC(c3cn(C)c4cc(F)c(Cl)cc34)N2)ccc1-n1cnc(C)c1` (single isomer, unassigned; (-)) [Example 216A, (−)-5-(5-chloro-6-fluoro-1-methyl-1H-indol-3-yl)-3-(6-methoxy-5-(4-methyl-1H-imidazol-1-yl)pyridin-2-yl)-5,6-dihydro-4H-1,2,4-oxadiazine], the pEC50 is 7.05.

`COc1nc(C2=NOCC(c3ccc(C4CC4)c(Cl)c3)N2)ccc1-n1cnc(C)c1` (single isomer, unassigned; (+)) [Example 243B, (+)-5-(3-chloro-4-cyclopropylphenyl)-3-(6-methoxy-5-(4-methyl-1H-imidazol-1-yl)pyridin-2-yl)-5,6-dihydro-4H-1,2,4-oxadiazine] showed a negative-log EC50 (pEC50) of 7.88.

On to `COc1nc(C2=NOCC(c3cscn3)N2)ccc1-n1cnc(C)c1` (single isomer, unassigned; (-)) [Example 156B, (−)-3-(6-methoxy-5-(4-methyl-1H-imidazol-1-yl)pyridin-2-yl)-5-(thiazol-4-yl)-5,6-dihydro-4H-1,2,4-oxadiazine], for which the negative-log EC50 (pEC50) is under 5.52.

`COc1nc(C2=NOCC(c3cccc(S(C)(=O)=O)c3)N2)ccc1-n1cnc(C)c1` (single isomer, unassigned; (-)) [Example 214A, (−)-3-(6-methoxy-5-(4-methyl-1H-imidazol-1-yl)pyridin-2-yl)-5-(3-(methylsulfonyl)phenyl)-5,6-dihydro-4H-1,2,4-oxadiazine] showed a negative logarithm of the EC50 (pEC50) of under 5.52.

As for `COc1nc(C2=NOCC(c3cn(C)c4cc(Cl)cc(OC)c34)N2)ccc1-n1cnc(C)c1` (single isomer, unassigned; (-)) [Example 254A, (−)-5-(6-chloro-4-methoxy-1-methyl-1H-indol-3-yl)-3-(6-methoxy-5-(4-methyl-1H-imidazol-1-yl)pyridin-2-yl)-5,6-dihydro-4H-1,2,4-oxadiazine], the pEC50 is 6.83.

Compound `COc1nc(C2=NOCC(c3ccccc3C)N2)ccc1-n1cnc(C)c1` (single isomer, unassigned; (+)) [Example 131A, (+)-3-(6-methoxy-5-(4-methyl-1H-imidazol-1-yl)pyridin-2-yl)-5-(o-tolyl)-5,6-dihydro-4H-1,2,4-oxadiazine] showed a negative logarithm of the EC50 (pEC50) of 6.99.

Compound `COc1nc(C2=NOCC(c3ccccn3)N2)ccc1-n1cnc(C)c1` (single isomer, unassigned; (-)) [Example 168B, (−)-3-(6-methoxy-5-(4-methyl-1H-imidazol-1-yl)pyridin-2-yl)-5-(pyridin-2-yl)-5,6-dihydro-4H-1,2,4-oxadiazine] gave a pEC50 of under 5.52.

For the compound `COc1nc(C2=NOCC(c3ccc(Cl)c(F)c3)N2)ccc1-n1cnc(C)c1` (single isomer, unassigned; (+)) [Example 106B, (+)-5-(4-chloro-3-fluorophenyl)-3-(6-methoxy-5-(4-methyl-1H-imidazol-1-yl)pyridin-2-yl)-5,6-dihydro-4H-1,2,4-oxadiazine], the negative logarithm of the EC50 (pEC50) is 7.64.

`COc1nc(C2=NOCC(c3ccc(Cl)c(F)c3)N2)ccc1-n1cnc(C)c1` (single isomer, unassigned; (-)) [Example 106A, (−)-5-(4-chloro-3-fluorophenyl)-3-(6-methoxy-5-(4-methyl-1H-imidazol-1-yl)pyridin-2-yl)-5,6-dihydro-4H-1,2,4-oxadiazine] showed a pEC50 of under 5.52.

Take `COc1nc(C2=NOCC(c3cn(C)c4ccc(C#N)cc34)N2)ccc1-n1cnc(C)c1` (single isomer, unassigned; (-)) [Example 245A, (−)-3-(3-(6-methoxy-5-(4-methyl-1H-imidazol-1-yl)pyridin-2-yl)-5,6-dihydro-4H-1,2,4-oxadiazin-5-yl)-1-methyl-1H-indole-5-carbonitrile]: the pEC50 is 6.26.

Compound `COc1nc(C2=NOCC(c3oc(C)nc3C)N2)ccc1-n1cnc(C)c1` (single isomer, unassigned; (-)) [Example 161A, (−)-5-(2,4-dimethyloxazol-5-yl)-3-(6-methoxy-5-(4-methyl-1H-imidazol-1-yl)pyridin-2-yl)-5,6-dihydro-4H-1,2,4-oxadiazine] showed a pEC50 (Homo sapiens) of under 5.52.

As for `COc1nc(C2=NOC[C@H](c3cc4ccccc4o3)N2C)ccc1-n1cnc(C)c1` [Example 32, (R)-5-(Benzofuran-2-yl)-3-(6-methoxy-5-(4-methyl-1H-imidazol-1-yl)pyridin-2-yl)-4-methyl-5,6-dihydro-4H-1,2,4-oxadiazine], the negative logarithm of the EC50 (pEC50) (Homo sapiens) was 6.41.

In turn, `COc1nc(C2=NOCC(c3cc4ccccc4n3C)N2)ccc1-n1cnc(C)c1` (single isomer, unassigned; (+)) [Example 205B, (+)-3-(6-methoxy-5-(4-methyl-1H-imidazol-1-yl)pyridin-2-yl)-5-(1-methyl-1H-indol-2-yl)-5,6-dihydro-4H-1,2,4-oxadiazine] gave a pEC50 of 7.57.

Compound `COc1nc(C2=NOCC(c3ccc(Cl)c(C)c3)N2)ccc1-n1cnc(C)c1` (single isomer, unassigned; (+)) [Example 86B, (+)-5-(4-chloro-3-methylphenyl)-3-(6-methoxy-5-(4-methyl-1H-imidazol-1-yl)pyridin-2-yl)-5,6-dihydro-4H-1,2,4-oxadiazine] showed a negative-log EC50 (pEC50) of 7.98.

Regarding `COc1nc(C2=NOCC(c3noc4ccccc34)N2)ccc1-n1cnc(C)c1` (single isomer, unassigned) [Example 174A, 3-(3-(6-methoxy-5-(4-methyl-1H-imidazol-1-yl)pyridin-2-yl)-5,6-dihydro-4H-1,2,4-oxadiazin-5-yl) benzo[d]isoxazole], the negative-log EC50 (pEC50) is under 5.52.

`CCC1CON=C(c2ccc(-n3cnc(C)c3)c(OC)n2)N1` (single isomer, unassigned) [Example 133A, 5-ethyl-3-(6-methoxy-5-(4-methyl-1H-imidazol-1-yl)pyridin-2-yl)-5,6-dihydro-4H-1,2,4-oxadiazine] had a pEC50 of under 5.52.
